Reference: patent publication US11548900B2, “Oxazino-quinazoline and oxazino-quinoline type compound, preparation method and uses thereof” (BEIJING SCITECH-MQ PHARMACEUTICALS LIMITED, priority 2018, dated 2023)

Target: HER2 kinase (Homo sapiens (Human), UniProt P04626)
Assay: Inhibition of HER2 kinase activity (ULight-labeled PolyGT substrate)
Format: biochemical
Settings: HER2 kinase 10 nM, ATP 10 μM, 2 hours
Protocol: The assay for the inhibition of EGFR and HER2 kinase activity by small molecular compounds was carried out using the method as follows:
1) Dilution of the compounds
In a 96-well plate a, the compounds were diluted with DMSO using a 3-fold gradient dilution to form 11 concentrations, the 12th concentration is pure DMSO (as a positive control); and in a new 96-well plate b the above solutions were diluted 25 times with ultrapure water (DMSO concentration is 4%).
2) Transferring the compounds to 384-well plate
The compound solutions diluted with ultrapure water in the 96-well plate b above was transferred to the corresponding wells of a 384-well plate in duplicate.
3) Addition of 4×kinase solution: 2.5 μl of the above 4× kinase solution was taken using multichannel pipette and added to the corresponding reaction wells of the 384-well plate, mixed well and pre-reacted at room temperature for 5 minutes.
4) Addition of 2×substrate/ATP mixed solution: 5 μl of the above 2×substrate/ATP mixed solution was taken using multichannel pipette and added to the corresponding reaction wells of the 384-well plate.
5) Negative control: negative control wells were set in the 384-well plate, and 2.5 μl 4×substrate, 2.5 μl 4×enzyme solution, 2.5 μl 1×Kinase Assay Buffer and 2.5 μl ultrapure water containing 4% DMSO were added to each well.
6) Mixed by centrifugation and kept at room temperature for 2 hours in the dark.
7) Termination of the enzymatic reaction:
5 μl of the above 4× stop solution was pipetted to the corresponding wells of the 384-well plate, centrifuged and mixed, and reacted at room temperature for 5 minutes.
5 μl of the above 4× detection solution was pipetted into the corresponding wells of the 384-well plate, centrifuged and mixed, and reacted at room temperature for 1 hour.
9) The 384-well plate was placed into a microplate reader and the signal was detected using the corresponding program.
10) IC50 analysis: Well reading value=10000*EU665 value/EU615 value Inhibition rate=(reading value of positive control well−reading value of experimental well)/(reading value of positive control well−reading value of negative control well)*100% Corresponding IC50s can be calculated by entering the drug concentrations and the corresponding inhibition rates into GraphPad Prism 5.
Conditions of experiment for screening HER2 kinase inhibitory molecules:
The final concentration of HER2 kinase in the reaction system is 10 nM, the final concentration of ATP is 10 μM, the final concentration of substrate ULight™-labeled PolyGT is 100 nM, and the enzymatic reaction time is 2 hours.
The maximum final concentration of the compound in the reaction system is 2.5 μM, 11 concentrations were made with a 3-fold gradient dilution, and the minimal final concentration is 0.042 nM. The final concentration of DMSO is 1%.

HER2 kinase, sequence (P04626 23-1255): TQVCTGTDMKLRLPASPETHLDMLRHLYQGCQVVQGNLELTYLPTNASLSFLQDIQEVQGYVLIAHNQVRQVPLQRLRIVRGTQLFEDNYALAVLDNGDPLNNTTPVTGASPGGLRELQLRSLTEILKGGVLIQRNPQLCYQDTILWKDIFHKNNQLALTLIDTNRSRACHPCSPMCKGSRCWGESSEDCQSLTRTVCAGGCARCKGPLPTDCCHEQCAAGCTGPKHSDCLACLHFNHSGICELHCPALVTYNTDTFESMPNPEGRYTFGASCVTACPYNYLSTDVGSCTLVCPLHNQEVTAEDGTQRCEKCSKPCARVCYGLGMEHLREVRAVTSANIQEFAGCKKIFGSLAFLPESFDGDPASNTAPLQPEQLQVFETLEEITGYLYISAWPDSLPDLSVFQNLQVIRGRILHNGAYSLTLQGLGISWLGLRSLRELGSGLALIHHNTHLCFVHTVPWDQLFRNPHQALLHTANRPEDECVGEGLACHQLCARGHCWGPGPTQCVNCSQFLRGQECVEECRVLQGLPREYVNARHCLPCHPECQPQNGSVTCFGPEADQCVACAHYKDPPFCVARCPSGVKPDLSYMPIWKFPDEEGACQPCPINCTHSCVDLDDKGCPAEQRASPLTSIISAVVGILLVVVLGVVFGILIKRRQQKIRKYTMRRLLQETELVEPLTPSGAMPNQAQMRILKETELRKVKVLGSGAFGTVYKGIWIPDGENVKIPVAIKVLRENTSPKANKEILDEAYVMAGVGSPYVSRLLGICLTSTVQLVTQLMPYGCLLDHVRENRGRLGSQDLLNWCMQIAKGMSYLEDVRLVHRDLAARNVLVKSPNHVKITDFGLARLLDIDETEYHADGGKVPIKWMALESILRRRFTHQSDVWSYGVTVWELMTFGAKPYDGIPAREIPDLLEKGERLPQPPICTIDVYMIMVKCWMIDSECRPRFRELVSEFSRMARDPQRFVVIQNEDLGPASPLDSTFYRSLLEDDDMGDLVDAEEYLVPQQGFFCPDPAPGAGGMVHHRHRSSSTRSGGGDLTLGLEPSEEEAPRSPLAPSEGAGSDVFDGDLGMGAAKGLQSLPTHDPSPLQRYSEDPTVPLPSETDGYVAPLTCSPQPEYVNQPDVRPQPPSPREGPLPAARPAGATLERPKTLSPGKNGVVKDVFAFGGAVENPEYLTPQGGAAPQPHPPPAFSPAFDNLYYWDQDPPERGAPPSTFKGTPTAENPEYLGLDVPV

IC50, ≤ 0.05 µM:
C=CC(=O)N1CCOc2c1ccc1ncnc(Nc3ccc(Oc4cccc(C(F)(F)F)c4)cc3)c21 [Example 1, 1-(10-((4-(3-(trifluoromethyl)phenoxy)phenyl)amino)-2,3-dihydro-4H-[1,4]oxazino[2,3-f]quinazolin-4-yl)prop-2-en-1-one]
C=CC(=O)N1CCOc2c1ccc1ncnc(Nc3ccc(Oc4cccc(C)c4)cc3)c21 [Example 5, 1-(10-((4-(m-tolyloxy)phenyl)amino)-2,3-dihydro-4H-[1,4]oxazino[2,3-f]quinazolin-4-yl)prop-2-en-1-one]
C=CC(=O)N1CCOc2c1ccc1ncnc(Nc3ccc(Oc4cccc(Cl)c4)cc3)c21 [Example 6, 1-(10-((4-(3-chlorophenoxy)phenyl)amino)-2,3-dihydro-4H-[1,4]oxazino[2,3-f]quinazolin-4-yl)prop-2-en-1-one]
C=CC(=O)N1CCOc2c1ccc1ncnc(Nc3ccc(Oc4cccc(F)c4)cc3)c21 [Example 7, 1-(10-((4-(3-fluorophenoxy)phenyl)amino)-2,3-dihydro-4H-[1,4]oxazino[2,3-f]quinazolin-4-yl)prop-2-en-1-one]
C=CC(=O)N1CCOc2c1ccc1ncnc(Nc3ccc(Oc4ccccc4F)cc3)c21 [Example 8, 1-(10-((4-(2-fluorophenoxy)phenyl)amino)-2,3-dihydro-4H-[1,4]oxazino[2,3-f]quinazolin-4-yl)prop-2-en-1-one]
C=CC(=O)N1CCOc2c1ccc1ncnc(Nc3ccc(Oc4ccc(F)cc4)cc3)c21 [Example 9, 1-(10-((4-(4-fluorophenoxy)phenyl)amino)-2,3-dihydro-4H-[1,4]oxazino[2,3-f]quinazolin-4-yl)prop-2-en-1-one]
C=CC(=O)N1CCOc2c1ccc1ncnc(Nc3ccc(Oc4ccc(Cl)cc4)cc3)c21 [Example 10, 1-(10-((4-(4-chlorophenoxy)phenyl)amino)-2,3-dihydro-4H-[1,4]oxazino[2,3-f]quinazolin-4-yl)prop-2-en-1-one]
C=CC(=O)N1CCOc2c1ccc1ncnc(Nc3ccc(Oc4ccccc4OC)cc3)c21 [Example 11, 1-(10-((4-(2-methoxyphenoxy)phenyl)amino)-2,3-dihydro-4H-[1,4]oxazino[2,3-f]quinazolin-4-yl)prop-2-en-1-one]
C=CC(=O)N1CCOc2c1ccc1ncnc(Nc3ccc(Oc4ccccn4)cc3)c21 [Example 12, 1-(10-((4-(pyridin-2-yloxy)phenyl)amino)-2,3-dihydro-4H-[1,4]oxazino[2,3-f]quinazolin-4-yl)prop-2-en-1-one]
C=CC(=O)N1CCOc2c1ccc1ncnc(Nc3ccc(Oc4cccnc4)cc3)c21 [Example 13, 1-(10-((4-(pyridin-3-yloxy)phenyl)amino)-2,3-dihydro-4H-[1,4]oxazino[2,3-f]quinazolin-4-yl)prop-2-en-1-one]
C=CC(=O)N1CCOc2c1ccc1ncnc(Nc3ccc(Oc4cccc(OC)c4)cc3)c21 [Example 14, 1-(10-((4-(3-methoxyphenoxy)phenyl)amino)-2,3-dihydro-4H-[1,4]oxazino[2,3-f]quinazolin-4-yl)prop-2-en-1-one]
C=CC(=O)N1CCOc2c1ccc1ncnc(Nc3ccc(Oc4nccs4)cc3)c21 [Example 15, 1-(10-((4-(thiazol-2-yloxy)phenyl)amino)-2,3-dihydro-4H-[1,4]oxazino[2,3-f]quinazolin-4-yl)prop-2-en-1-one]
C=CC(=O)N1CCOc2c1ccc1ncnc(Nc3ccc(Oc4ccccc4)c(F)c3)c21 [Example 16, 1-(10-((3-fluoro-4-phenoxyphenyl)amino)-2,3-dihydro-4H-[1,4]oxazino[2,3-f]quinazolin-4-yl)prop-2-en-1-one]
C=CC(=O)N1CCOc2c1ccc1ncnc(Nc3ccc(Oc4ccccc4)c(Cl)c3)c21 [Example 17, 1-(10-((3-chloro-4-phenoxyphenyl)amino)-2,3-dihydro-4H-[1,4]oxazino[2,3-f]quinazolin-4-yl)prop-2-en-1-one]
C=CC(=O)N1CCOc2c1ccc1ncnc(Nc3ccc(OCc4ccc(F)cc4)cc3)c21 [Example 18, 1-(10-((4-((4-fluorobenzyl)oxy)phenyl)amino)-2,3-dihydro-4H-[1,4]oxazino[2,3-f]quinazolin-4-yl)prop-2-en-1-one]
C=CC(=O)N1CCOc2c1ccc1ncnc(Nc3ccc(OCc4cccc(F)c4)cc3)c21 [Example 19, 1-(10-((4-((3-fluorobenzyl)oxy)phenyl)amino)-2,3-dihydro-4H-[1,4]oxazino[2,3-f]quinazolin-4-yl)prop-2-en-1-one]
C=CC(=O)N1CCOc2c1ccc1ncnc(Nc3ccc(OCc4cccc(C(F)(F)F)c4)cc3)c21 [Example 20, 1-(10-((4-((3-trifluoromethylbenzyl)oxy)phenyl)amino)-2,3-dihydro-4H-[1,4]oxazino[2,3-f]quinazolin-4-yl)prop-2-en-1-one]
C=CC(=O)N1CCOc2c1ccc1ncnc(Nc3ccc(OCc4ccccn4)cc3)c21 [Example 21, 1-(10-((4-(pyridin-2-ylmethoxy)phenyl)amino)-2,3-dihydro-4H-[1,4]oxazino[2,3-f]quinazolin-4-yl)prop-2-en-1-one]
C=CC(=O)N1CCOc2c1ccc1ncnc(Nc3ccc(OCc4cccs4)cc3)c21 [Example 22, 1-(10-((4-(thiophen-2-ylmethoxy)phenyl)amino)-2,3-dihydro-4H-[1,4]oxazino[2,3-f]quinazolin-4-yl)prop-2-en-1-one]
C=CC(=O)N1CCOc2c1ccc1ncnc(Nc3ccc(OCc4nccs4)cc3)c21 [Example 23, 1-(10-((4-(thiazol-2-ylmethoxy)phenyl)amino)-2,3-dihydro-4H-[1,4]oxazino[2,3-f]quinazolin-4-yl)prop-2-en-1-one]
C=CC(=O)N1CCOc2c1ccc1ncnc(Nc3ccc(SCc4ccccc4)cc3)c21 [Example 24, 1-(10-((4-(benzylthio)phenyl)amino)-2,3-dihydro-4H-[1,4]oxazino[2,3-f]quinazolin-4-yl)prop-2-en-1-one]
C=CC(=O)N1CCOc2c1ccc1ncnc(Nc3ccc(OCc4cccc(F)c4)c(C(F)(F)F)c3)c21 [Example 25, 1-(10-((4-((3-fluorobenzyl)oxy)-3-(trifluoromethyl)phenyl)amino)-2,3-dihydro-4H-[1,4]oxazino[2,3-f]quinazolin-4-yl)prop-2-en-1-one]
C=CC(=O)N1CCOc2c1ccc1ncnc(Nc3ccc(OCc4cccc(F)c4)c(OC)c3)c21 [Example 26, 1-(10-((4-((3-fluorobenzyl)oxy)-3-(methoxy)phenyl)amino)-2,3-dihydro-4H-[1,4]oxazino[2,3-f]quinazolin-4-yl)prop-2-en-1-one]
C=CC(=O)N1CCOc2c1ccc1ncnc(Nc3ccc(OCc4cccc(F)c4)c(F)c3)c21 [Example 27, 1-(10-((4-((3-fluorobenzyl)oxy)-3-fluorophenyl)amino)-2,3-dihydro-4H-[1,4]oxazino[2,3-f]quinazolin-4-yl)prop-2-en-1-one]
